Experimental data published in the supplement of paper PMC13380429.
± gives the standard deviation of the averaged measurements.

Columns and labels:
Conditions in all cases: 72 h
Calu-3 [1] = experiment: relative viability EC50 (midpoint between 100% and the lowest measured viability); higher = less toxic
HepG2 [2] = experiment: as above
Caco-2 [3] = experiment: as above
Vero E6 [4] = experiment: as above
U2OS [5] = experiment: as above
Calu-3 [6] = experiment: drug sensitivity score (DSS) for viability; higher = more toxic; extreme values may be limits of the assay
HepG2 [7] = experiment: as above
Caco-2 [8] = experiment: as above
Vero E6 [9] = experiment: as above
U2OS [10] = experiment: as above
Calu-3 [11] = experiment: cell viability relative to DMSO; higher = less toxic
HepG2 [12] = experiment: as above
Caco-2 [13] = experiment: as above
Vero E6 [14] = experiment: as above
U2OS [15] = experiment: as above

SMILES | relative viability EC50 (Calu-3 [1]) [µM] | relative viability EC50 (HepG2 [2]) [µM] | relative viability EC50 (Caco-2 [3]) [µM] | relative viability EC50 (Vero E6 [4]) [µM] | relative viability EC50 (U2OS [5]) [µM] | drug sensitivity score (Calu-3 [6]) | drug sensitivity score (HepG2 [7]) | drug sensitivity score (Caco-2 [8]) | drug sensitivity score (Vero E6 [9]) | drug sensitivity score (U2OS [10]) | cell viability (Calu-3 [11]; 1 nM) [%] | cell viability (Calu-3 [11]; 10 nM) [%] | cell viability (Calu-3 [11]; 100 nM) [%] | cell viability (Calu-3 [11]; 1000 nM) [%] | cell viability (Calu-3 [11]; 10000 nM) [%] | cell viability (HepG2 [12]; 1 nM) [%] | cell viability (HepG2 [12]; 10 nM) [%] | cell viability (HepG2 [12]; 100 nM) [%] | cell viability (HepG2 [12]; 1000 nM) [%] | cell viability (HepG2 [12]; 10000 nM) [%] | cell viability (Caco-2 [13]; 1 nM) [%] | cell viability (Caco-2 [13]; 10 nM) [%] | cell viability (Caco-2 [13]; 100 nM) [%] | cell viability (Caco-2 [13]; 1000 nM) [%] | cell viability (Caco-2 [13]; 10000 nM) [%] | cell viability (Vero E6 [14]; 1 nM) [%] | cell viability (Vero E6 [14]; 10 nM) [%] | cell viability (Vero E6 [14]; 100 nM) [%] | cell viability (Vero E6 [14]; 1000 nM) [%] | cell viability (Vero E6 [14]; 10000 nM) [%] | cell viability (U2OS [15]; 1 nM) [%] | cell viability (U2OS [15]; 10 nM) [%] | cell viability (U2OS [15]; 100 nM) [%] | cell viability (U2OS [15]; 1000 nM) [%] | cell viability (U2OS [15]; 10000 nM) [%]
CC(Cc1ccccc1)(NC(=O)CN)c1ccccc1 (stereo not given) [remacemide] | > 10 | > 10 | > 10 | > 10 | > 10 | 0 | 0 | 0 | 0 | 0 | 102 | 93.6 | 92.5 | 98.6 | 90.8 | 99.4 | 96.1 | 100 | 94.3 | 104 | 99.6 | 92.8 | 100 | 91.5 | 102 | 99.7 | 101 | 102 | 96.2 | 99.3 | 98.6 | 94.7 | 99.6 | 93.6 | 94
CCN(CC)C(=O)/C(C#N)=C/c1cc(O)c(O)c([N+](=O)[O-])c1 [entacapone] | > 10 | > 10 | > 10 | > 10 | > 10 | 0 | 0 | 0 | 0 | 0 | 92.3 | 86.9 | 94.7 | 98.5 | 101 | 98.3 | 84.1 | 102 | 92.2 | 100 | 93.7 | 98.4 | 95.5 | 96 | 93.2 | 100 | 99.2 | 93.2 | 96 | 100 | 96.8 | 102 | 98 | 98.9 | 99.7
COc1ccc(Br)cc1S(=O)(=O)NC(=O)/C=C/c1ccccc1Cc1ccc2ccccc2c1 | > 10 | > 10 | > 10 | > 10 | > 10 | 1.7 | 0 | 0.1 | 0 | 0 | 94.2 | 106 | 88 | 86.5 | 97.9 | 96.4 | 96.5 | 95.8 | 98.9 | 102 | 104 | 94 | 99.1 | 97.8 | 87.5 | 96 | 98.6 | 95.3 | 90.8 | 101 | 99.9 | 98.3 | 94.4 | 98.9 | 95.8
Cc1cccc(C(C)c2c[nH]cn2)c1C (stereo not given) [medetomidine] | > 10 | > 10 | > 10 | > 10 | > 10 | 0 | 0 | 0 | 0 | 0 | 104 ± 2.5 | 98.5 ± 14 | 103 ± 2.5 | 105 ± 11 | 95.2 ± 0.57 | 92.5 ± 2.5 | 106 ± 1.3 | 101 ± 2.7 | 102 ± 9.6 | 111.4 ± 0.14 | 97.85 ± 0.35 | 88 ± 1.9 | 99.2 ± 5.2 | 100 ± 3.1 | 99.1 ± 1.6 | 95.3 ± 0.57 | 97.5 ± 0.99 | 92.5 ± 3.8 | 99.75 ± 0.071 | 101 ± 3.2 | 100 ± 2.2 | 96.1 ± 0.71 | 102 ± 5.5 | 94.5 ± 0.42 | 97.6 ± 6.1
c1cc2c3c(c1)c1c(n3CCNC2)CCCC1 [WAY-629] | > 10 | > 10 | > 10 | > 10 | > 10 | 0.1 | 0 | 0 | 0 | 0 | 110 | 83.8 | 104 | 106 | 85.7 | 88.5 | 95.4 | 81.1 | 93 | 90.9 | 113 | 90.6 | 100 | 90 | 97.1 | 100 | 99.7 | 102 | 98.8 | 92.4 | 101 | 100 | 95.3 | 93 | 95.9
c1ccc([C@H]2CNCc3ccccc32)cc1 [4-phenyl-1,2,3,4-tetrahydroisoquinoline] | > 10 | > 10 | > 10 | > 10 | > 10 | 0 | 0 | 0 | 0 | 0 | 101 | 109 | 92.3 | 102 | 105 | 101 | 91.7 | 103 | 104 | 96.7 | 98.1 | 109 | 97.3 | 103 | 103 | 96.7 | 99.4 | 100 | 99.6 | 98.8 | 99.9 | 101 | 94.1 | 94.9 | 100
CN(C)CCC(c1ccc(Br)cc1)c1ccccn1 (stereo not given) [brompheniramine] | > 10 | > 10 | > 10 | > 10 | > 10 | 0 | 0 | 0 | 0 | 0 | 94.9 | 99.5 | 96.6 | 94.5 | 88.9 | 99.3 | 98.5 | 96.4 | 93.7 | 88.1 | 92.3 | 75.3 | 96.6 | 101 | 96.2 | 98.8 | 102 | 100 | 105 | 94.9 | 106 | 101 | 102 | 97.6 | 102
FC(F)(F)c1ccc(N2CCNCC2)nc1Cl | > 10 | > 10 | > 10 | > 10 | > 10 | 0 | 0 | 0 | 0 | 0 | 96.1 | 105 | 93.7 | 106 | 107 | 108 | 96.2 | 92 | 106 | 104 | 101 | 98.5 | 107 | 104 | 96.4 | 101 | 98 | 95.9 | 95.6 | 95.2 | 97.4 | 99.9 | 95.2 | 100 | 92.7
CCc1c(C(=O)NCCc2ccc(N3CCCCC3)cc2)[nH]c2ccc(Cl)cc12 | > 10 | > 10 | > 10 | > 10 | > 10 | 0 | 0 | 0 | 0 | 0 | 95.8 | 97.5 | 93.4 | 100 | 101 | 97.4 | 107 | 92.3 | 105 | 99.4 | 98.7 | 94 | 95.2 | 90.6 | 91 | 97.6 | 96.4 | 105 | 100 | 96 | 98 | 93.9 | 98.8 | 95.2 | 98.6
CC1(C)[C@@H](OC(=O)CCC(=O)O)CC[C@]2(C)[C@H]3C(=O)C=C4[C@@H]5C[C@@](C)(C(=O)O)CC[C@]5(C)CC[C@@]4(C)[C@]3(C)CC[C@@H]12 [CARBENOXOLONE SODIUM] | > 10 | > 10 | > 10 | > 10 | > 10 | 0 | 0 | 0 | 0 | 0 | 88.9 | 102 | 92.8 | 106 | 96 | 97.8 | 98 | 113 | 96.6 | 91.2 | 94.4 | 96.6 | 92.3 | 99.1 | 99 | 100 | 49.3 | 101 | 59.6 | 99.2 | 107 | 99.8 | 101 | 103 | 104
O=C1CC[C@@](c2ccccc2)(C2CCN(Cc3ccc(I)cc3)CC2)C(=O)N1 [iododexetimide] | > 10 | > 10 | > 10 | > 10 | > 10 | 0 | 1.4 | 0 | 0 | 0 | 97.8 | 110 | 102 | 107 | 104 | 107 | 96.4 | 92.5 | 87.5 | 83.6 | 89 | 104 | 98.1 | 97.7 | 93.9 | 98.7 | 100 | 102 | 100 | 93 | 98.8 | 95.5 | 94.3 | 100 | 90.4
COc1cccc2c1C(=O)c1c(O)c3c(c(O)c1C2=O)C[C@@](O)(/C(CO)=N/NC(=O)CCCCCN1C(=O)C=CC1=O)C[C@@H]3O[C@H]1C[C@H](N)[C@H](O)[C@H](C)O1 [aldoxorubicin] | 0.233 | 0.102 | 0.367 | 1.38 | 0.513 | 13.2 | 21.6 | 11.7 | 5.8 | 14.2 | 93.4 | 98.1 | 75.7 | 45.1 | 28 | 97.4 | 94 | 50.3 | 20.3 | 5.8 | 104 | 102 | 93.2 | 41.4 | 30.9 | 105 | 101 | 103 | 82 | 41.9 | 102 | 98.4 | 94.8 | 28.5 | 6
COC(=O)c1ccc2c(c1)nc(NC(=O)c1ccccc1)n2CCCc1ccccc1 [BRD4770] | > 10 | > 10 | > 10 | > 10 | > 10 | 0 | 1.6 | 1 | 0 | 0.1 | 107 | 96.6 | 97.4 | 93.6 | 95.5 | 109 | 97.2 | 99.9 | 94.3 | 77 | 98 | 103 | 94.1 | 91.9 | 80 | 103 | 97.4 | 98 | 96.6 | 90.1 | 97.9 | 98.6 | 98.2 | 99.3 | 88.3
Nc1cccc2c(=O)[nH][nH]c(=O)c12 [monosodium-alpha-luminol] | > 10 | > 10 | > 10 | > 10 | > 10 | 0 | 0 | 0 | 0 | 0 | 98.5 | 100 | 97.4 | 105 | 105 | 95.9 | 89.7 | 104 | 89.8 | 113 | 93 | 88.6 | 90.3 | 92.7 | 97.7 | 102 | 92.7 | 96.1 | 95.2 | 106 | 98 | 102 | 95.4 | 102 | 103
